Experimental data reported in PMC7817177 (eLife, 2021).

Assays:
ARL3 = target: T1, ARL3 (Homo sapiens, UniProt P36405); experiment: fluorescence polarisation, competition with mantGDP; type: binding; settings: 2 uM mantGDP, 2 uM ARL3-GDP, 2 uM ARL13B 18-278 (GEF) present, pH 7.5, 5 mM MgCl2, room temperature, competitive
T1 construct: full-length, C-terminal His6 tag (untagged thrombin-cut version in some assays), E. coli BL21-CodonPlus(DE3)-RIL

ARL3^ΔN (ARL3^17-182) = target: T2, ARL3^ΔN (ARL3^17-182) (Homo sapiens, UniProt P36405); experiment: fluorescence polarisation nucleotide exchange, displacement of mantGDP; type: binding; settings: 150 uM GppNHp with ARL13B 18-278 (GEF); competitive
T2 construct: residues 17-182 (N-terminal helix removed), C-terminal His6 tag, E. coli
T2 sequence (P36405 17-182, stated change not applied): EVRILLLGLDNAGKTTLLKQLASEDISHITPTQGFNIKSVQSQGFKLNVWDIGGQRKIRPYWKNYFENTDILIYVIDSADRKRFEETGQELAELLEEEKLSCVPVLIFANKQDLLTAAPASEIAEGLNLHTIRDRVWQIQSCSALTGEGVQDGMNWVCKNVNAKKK

[1] = target: ADP-ribosylation factor-like 3 (ARL3), full length (human, UniProt P36405 1-182); experiment: cell-based or functional assay
Sequence of ADP-ribosylation factor-like 3 (ARL3), full length (P36405 whole entry): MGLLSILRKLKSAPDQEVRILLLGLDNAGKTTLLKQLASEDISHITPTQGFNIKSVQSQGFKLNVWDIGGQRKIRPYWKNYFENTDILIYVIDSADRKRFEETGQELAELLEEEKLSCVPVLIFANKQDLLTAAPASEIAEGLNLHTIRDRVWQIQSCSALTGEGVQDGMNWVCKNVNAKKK

T1 sequence (P36405 2-182): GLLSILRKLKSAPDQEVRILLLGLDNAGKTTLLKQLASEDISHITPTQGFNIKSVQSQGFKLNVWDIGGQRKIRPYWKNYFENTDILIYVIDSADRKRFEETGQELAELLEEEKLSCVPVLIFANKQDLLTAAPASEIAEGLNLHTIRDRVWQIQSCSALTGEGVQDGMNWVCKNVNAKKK

## Nc1nc2c(ncn2[C@@H]2O[C@H](COP(=O)(O)OP(=O)(O)O)[C@@H](O)[C@H]2O)c(=O)[nH]1 [GDP]
ARL3; 40 uM unlabelled GDP
  % mantGDP binding relative to no unlabelled nucleotide: excess unlabelled GDP was able to compete with mantGDP

## Nc1nc2c(ncn2[C@@H]2O[C@H](COP(=O)(O)OP(=O)(O)OP(=O)(O)O)[C@@H](O)[C@H]2O)c(=O)[nH]1 [GTP]
ARL3; 40 uM unlabelled GTP
  % mantGDP binding relative to no unlabelled nucleotide: 53%

## Nc1nc2c(ncn2[C@@H]2O[C@H](COP(=O)(O)OP(=O)(O)NP(=O)(O)O)[C@@H](O)[C@H]2O)c(=O)[nH]1 [GppNHp]
ARL3; 40 uM unlabelled GppNHp
  % mantGDP binding relative to no unlabelled nucleotide: 83.7%
ARL3^ΔN (ARL3^17-182)
  fluorescence polarisation nucleotide exchange, displacement of mantGDP: ARL3^ΔN undergoes significant nucleotide exchange upon the addition of ARL13B

B1: GST-tagged binder of ARL2 (BART), full length (natural protein, human, UniProt Q9Y2Y0 1-163, looked up)
chain: MDALEGESFALSFSSASDAEFDAVVGYLEDIIMDDEFQLLQRNFMDKYYLEFEDTEENKLIYTPIFNEYISLVEKYIEEQLLQRIPEFNMAAFTTTLQHHKDEVAGDIFDMLLTFTDFLAFKEMFLDYRAEKEGRGLDLSSGLVVTSLCKSSSLPASQNNLRH
[1]
  acceleration by 20 µM BART of the exchange of 2 µM ARL3mantGDP with 150 µM unlabelled GDP and 10 µM ARL13B^18-278 (fluorescence polarisation): ~70 fold
